Laboratory results published in PubChem BioAssay (NCI).
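Growth conditions: 96-well plates. Treatment: test compound, 48 hours, 5 concentrations. Analysis: linear interpolation between bracketing concentrations; unreached endpoints set to highest concentration. TGI is the concentration that stops growth completely.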

How the values were obtained:
Assay in all cases: NCI tumour cell line growth inhibition, 48 h
[1] = test system: HT29 colon
[2] = test system: NCI-H23 lung
[3] = test system: RXF 393 renal
[4] = test system: NCI-H460 lung
[5] = test system: OVCAR-4 ovarian
[6] = test system: K-562 leukemia
[7] = test system: ACHN renal
[8] = test system: OVCAR-8 ovarian
[9] = test system: CAKI-1 renal
[10] = test system: UACC-62 melanoma
[11] = test system: HCT-15 colon
[12] = test system: A498 renal
[13] = test system: IGROV1 ovarian
[14] = test system: KM20L2 colon
[15] = test system: RPMI-8226 leukemia
[16] = test system: U251 CNS
[17] = test system: HCC-2998 colon
[18] = test system: NCI-H226 lung
[19] = test system: MOLT-4 leukemia
[20] = test system: SK-MEL-28 melanoma
[21] = test system: UO-31 renal
[22] = test system: LOX IMVI melanoma
[23] = test system: HCT-116 colon
[24] = test system: SN12C renal
[25] = test system: M14 melanoma
[26] = test system: 786-0 renal
[27] = test system: SF-295 CNS
[28] = test system: SNB-19 CNS
[29] = test system: SR leukemia
[30] = test system: SF-268 CNS
[31] = test system: EKVX NSCLC
[32] = test system: HOP-92 NSCLC
[33] = test system: SK-MEL-2 melanoma
[34] = test system: MALME-3M melanoma
[35] = test system: SNB-78 CNS
[36] = test system: HOP-18 NSCLC
[37] = test system: DLD-1 colon
[38] = test system: HOP-62 NSCLC
[39] = test system: SW-620 colon
[40] = test system: DMS 114 small cell lung
[41] = test system: A549 NSCLC
[42] = test system: M19-MEL melanoma
[43] = test system: TK-10 renal
[44] = test system: DMS 273 small cell lung
[45] = test system: UACC-257 melanoma
[46] = test system: SK-MEL-5 melanoma
[47] = test system: LXFL 529 NSCLC
[48] = test system: CCRF-CEM leukemia
[49] = test system: OVCAR-5 ovarian
[50] = test system: SK-OV-3 ovarian
[51] = test system: COLO 205 colon
[52] = test system: OVCAR-3 ovarian
[53] = test system: NCI-H522 lung
[54] = test system: SF-539 CNS
[55] = test system: HL-60(TB) leukemia
[56] = test system: SNB-75 CNS
[57] = test system: KM12 colon

COc1cc2c(c(OC)c1O)-c1ccc(SC)c(=O)cc1C(NC(C)=O)CC2 (stereo not given)
TGI [1]: > 100 µM | TGI [2]: 3.79 µM | TGI [3]: > 100 µM | TGI [4]: > 11 µM | TGI [5]: > 100 µM | TGI [6]: > 100 µM | TGI [7]: > 100 µM | TGI [8]: > 100 µM | TGI [9]: > 100 µM | TGI [10]: > 100 µM | TGI [11]: > 100 µM | TGI [12]: 30.9 µM | TGI [13]: > 100 µM | TGI [14]: 0.0246 µM | TGI [15]: > 100 µM | TGI [16]: > 5.55 µM | TGI [17]: > 100 µM | TGI [18]: > 16.7 µM | TGI [19]: > 100 µM | TGI [20]: > 100 µM | TGI [21]: > 100 µM | TGI [22]: > 100 µM | TGI [23]: 0.252 µM | TGI [24]: > 100 µM | TGI [25]: > 100 µM | TGI [26]: > 100 µM | TGI [27]: 0.0868 µM | TGI [28]: > 100 µM | TGI [29]: > 100 µM | TGI [30]: > 100 µM | TGI [31]: > 100 µM | TGI [32]: > 100 µM | TGI [33]: > 5.54 µM | TGI [34]: > 100 µM | TGI [35]: > 100 µM | TGI [36]: > 100 µM | TGI [37]: > 100 µM | TGI [38]: > 100 µM | TGI [39]: > 100 µM | TGI [40]: < 0.0143 µM | TGI [41]: > 100 µM | TGI [42]: > 100 µM | TGI [43]: > 100 µM | TGI [44]: > 100 µM | TGI [45]: > 100 µM | TGI [46]: 0.0361 µM | TGI [47]: > 100 µM | TGI [48]: > 100 µM | TGI [49]: > 100 µM | TGI [50]: > 100 µM | TGI [51]: 0.0209 µM | TGI [52]: 0.0142 µM

Cc1cc(=O)[nH]c(NNC(C#N)c2cccc(O)c2)n1 (stereo not given)
TGI [1]: > 100 µM | TGI [2]: > 100 µM | TGI [3]: > 100 µM | TGI [4]: > 100 µM | TGI [5]: > 100 µM | TGI [6]: > 100 µM | TGI [7]: > 100 µM | TGI [8]: > 100 µM | TGI [9]: > 100 µM | TGI [10]: > 100 µM | TGI [11]: > 100 µM | TGI [13]: > 100 µM | TGI [14]: > 100 µM | TGI [15]: > 100 µM | TGI [16]: > 100 µM | TGI [53]: > 100 µM | TGI [54]: > 100 µM | TGI [18]: > 100 µM | TGI [19]: > 100 µM | TGI [20]: > 100 µM | TGI [21]: > 100 µM | TGI [22]: > 100 µM | TGI [23]: > 100 µM | TGI [24]: > 100 µM | TGI [25]: > 100 µM | TGI [26]: > 100 µM | TGI [27]: > 100 µM | TGI [29]: > 100 µM | TGI [30]: > 100 µM | TGI [32]: > 100 µM | TGI [33]: > 100 µM | TGI [34]: > 100 µM | TGI [35]: > 100 µM | TGI [55]: > 100 µM | TGI [36]: > 100 µM | TGI [37]: > 100 µM | TGI [38]: > 100 µM | TGI [39]: > 100 µM | TGI [40]: > 100 µM | TGI [56]: > 100 µM | TGI [41]: > 100 µM | TGI [42]: > 100 µM | TGI [43]: > 100 µM | TGI [44]: > 100 µM | TGI [45]: > 100 µM | TGI [46]: > 100 µM | TGI [47]: > 100 µM | TGI [48]: > 100 µM | TGI [57]: > 100 µM | TGI [49]: > 100 µM | TGI [50]: > 100 µM | TGI [51]: > 100 µM | TGI [52]: > 100 µM
